Target: T1, Phosphorylated rglkA (Staphylococcus aureus, UniProt H6UH58)
T1 construct: gene glcK; recombinant from clone glkA1, nickel-column purified (His tag implied); phosphorylated in vitro by S. aureus rBYK (tyrosine; site not determined)
Assay: coupled glucose-6-phosphate dehydrogenase assay, […] nm; Hanes-Woolf plot
Type: biochemical
Settings: ATP, 0.5 mM MgCl2, NADP, 60 mM Tris-HCl pH 7.5, 37 °C; enzyme phosphorylated by BYK

T1 sequence (H6UH58 entry or part of it): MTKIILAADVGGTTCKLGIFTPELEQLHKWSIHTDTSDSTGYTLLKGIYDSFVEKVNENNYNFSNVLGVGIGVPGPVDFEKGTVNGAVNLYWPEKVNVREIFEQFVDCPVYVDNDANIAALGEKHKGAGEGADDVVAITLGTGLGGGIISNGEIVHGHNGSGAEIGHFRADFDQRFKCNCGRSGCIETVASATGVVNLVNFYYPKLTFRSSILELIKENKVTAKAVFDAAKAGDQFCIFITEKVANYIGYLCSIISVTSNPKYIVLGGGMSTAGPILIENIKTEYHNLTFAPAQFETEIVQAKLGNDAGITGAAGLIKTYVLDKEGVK

With `OC[C@H]1OC(O)[C@H](O)[C@@H](O)[C@@H]1O` (stereo partly shown) [glucose] the Km was 5.18 ± 0.5 mM.
